Results on 1 compound are retold here after patent publication US10975434B2, “Growth differentiation factor 15 as biomarker for metformin” (Sanofi-Aventis Deutschland GmbH, priority 2015, dated 2021).

For assay [1], the system named is GDF15. As to the kind of experiment: Chronic metformin in high-fat diet, serum GDF15 in obese C57bl6 mice. It is filed as in vivo, mouse. The settings on record: obese insulin-resistant mice, 2.5 g/kg metformin in 60% high-fat diet for 6 weeks, versus untreated controls; P<0.05. As to the method: (§1) For the acute experiments, 12 (i.e. 6 per group) 20-week old male C57bl6 mice (Jackson Laboratories) were fasted for 12 hours then allowed to feed ad libitum for 2 hours prior to injection with either metformin (250 mg/kg in 10 μl/g body weight saline) or vehicle (10 μl/g body weight saline) intraperitoneally. Blood was collected 90 minutes later by tail vein bleed, and serum was assayed for GDF15 levels using the Elisa described above (R&D Systems, Minneapolis, Minn.). […] Fed bloods were sampled by tail vein bleed from the animals at the end of the treatment period and serum GDF15 measured as above. Animal experiments were all approved by the McMaster University Animal Ethics Committee.

The test system of assay [2] is GDF15. As to the kind of experiment: Acute metformin injection, serum GDF15 in C57bl6 mice. It is filed as in vivo, mouse. The settings on record: 250 mg/kg intraperitoneally, male C57bl6 mice, versus saline; P<0.05. On the procedure:
as §1

Assay [3] relates to GDF15. As to the kind of experiment: Multiplex serum biomarker analysis: GDF15 level versus metformin use and dose. As to conditions: serum of people taking varying doses of metformin; FIG. 2. In kind it is in vivo, human.
Description: At Myriad RBM Inc., the samples were thawed at room temperature (RT), vortexed, spun at 13,000 g for 5 minutes for clarification, and an aliquot was removed into a master microtiter plate for analysis. Using automated pipetting, an aliquot of each sample was introduced into one of the capture microsphere multiplexes of the Human DiscoveryMAP. The mixtures of sample and capture microspheres were thoroughly mixed and incubated at RT for 1 hour. Multiplexed cocktails of biotinylated reporter antibodies for each multiplex (such as GDF-15), were then added robotically, and after thorough mixing, were incubated for an additional hour at RT. Multiplexes were developed using an excess of streptavidinphycoerythrin solution which was thoroughly mixed into each multiplex and incubated for 1 hour at RT. […] Testing results were determined first for the high, medium and low controls for each multiplex to ensure proper assay performance. Unknown values for each of the analytes localized in a specific multiplex were determined using 4 and 5 parameter, weighted and non-weighted curve fitting algorithms included in the data analysis package^40. […]
The 237 available biomarkers were analyzed to identify those that were statistically independent determinants of the use of metformin using unadjusted logistic regression models and forward selection. […]
Assay [4] is described as follows: Outcomes during follow-up of biomarker study participants by baseline metformin use.
Assay [5] deals with GDF15 mRNA. As to the kind of experiment: GDF15 messenger RNA expression in primary hepatocytes (BeadChip). It is filed as cell-based, mouse. The settings on record: primary C57Bl6 hepatocytes, metformin 0.5 mM versus vehicle; P=0.003. As to the method: To further understand the link between metformin and GDF15 levels, in vitro experiments were conducted using mouse hepatocytes. Primary hepatocytes from 4 different C57Bl6 wild-type male mice were isolated by collagenase digestion as previously described^14. Briefly, cells were plated on 12-well collagen-coated plates overnight in William's Media E containing 10% fetal bovine serum (FBS) and 1% antibiotic-antimycotic. […] Media was then snap frozen and stored at −80° C. for later analyses, and cells were harvested in cell lysis buffer for assessment of total protein or RNA.
GDF15 release into the media was measured using a commercially available ELISA kit (R&D Systems, Minneapolis, Minn.) and expressed per mg of hepatocyte protein. Total RNA was isolated using the Trizol plus RNA Purification kit (Ambion), concentrated with Speedvac (Thermo), and then quantified using Quant-IT RiboGreen (LifeTech). Total RNA was then reverse transcribed and amplified using the Illumina TotalPrep RNA Amplification Kit (LifeTech) according to the manufacturer's protocol. Samples were hybridized to the Illumina Mouse Ref-8 v2.0 complementary DNA BeadChip and scanned on the iScan System (Illumina). The raw sample probe profile and control probe profile were exported from GenomeStudio version 1.9.0 (Illumina). […]

The mark [6] stands for this setting: share of the 2317 participants on metformin at baseline.

Take `CN(C)C(=N)NC(=N)N` [Metformin, metformin]: the “serum GDF 15 levels after chronic treatment” value in assay [1] is reported as “significantly increased”. The “90 minute serum levels of GDF 15” value in assay [2] is on record as “significantly increased”. The “mean concentration of GDF15 by metformin dose” value in assay [3] was “rose with progressively higher doses”. For the same compound, the “Expanded Composite CV Outcome during follow-up, number of participants” value in assay [4] (participants on metformin at baseline, N 2317, P 0.008 vs no metformin) was determined as 622. Further, the “Death during follow-up, number of participants” value in assay [4] (participants on metformin at baseline, N 2317, P 0.01 vs no metformin) worked out at 331. For the same compound, the “Composite CV Outcome during follow-up, number of participants” value in assay [4] (participants on metformin at baseline, N 2317, median follow-up 6.2 years, P 0.007 vs no metformin) amounted to 346. Moreover, in assay [4] (setting [6]), the “Composite CV Outcome during follow-up, value in parentheses” value is on record as “(14.9)”; the “Death during follow-up, value in parentheses” value was “(14.3)”; the “Expanded Composite CV Outcome during follow-up, value in parentheses” value is given as “(26.8)”. Further, the “increase in GDF15 mRNA” value in assay [5] came out at 1.6 fold.
